Measurements published in ChEMBL document CHEMBL3885861, “Open TG-GATES”.

Species: Rattus norvegicus
Assay: Open TG-GATES - Regimen: Single
Format: toxicity, organism-based, Sprague-Dawley
Set-up: regimen Single, gender Male, age 6 weeks
Details: in vivo, po, 50 mg/kg, route gavage, dose level Middle; for APTT / Bas / Eos / Fbg / Hb / Ht / Lym / MCH / MCHC / MCV / Mono / Neu / PT / Plat / RBC / Ret / WBC: tissue Blood; for KIDNEY_L / KIDNEY_R / KIDNEY_TOTAL: tissue Kidney; for LIVER: tissue Liver; for A/G / ALP / ALT / AST / BUN / CRE / Ca / Cl / DBIL / GLC / IP / K / LDH / Na / PL / RALB / TBIL / TC / TG / TP / gamma-GTP: tissue Plasma

SMILES: O=c1ccc2ccccc2o1 [COUMARIN]
- TERMINAL_BW (3 h): 184.1 g
- APTT (3 h): 16.3 s
- Bas (3 h): 0%
- Eos (3 h): 0.6%
- Fbg (3 h): 198 mg/dL
- Hb (3 h): 13.4 g/dL
- Ht (3 h): 40.4%
- Lym (3 h): 81.4%
- MCH (3 h): 21.9 pg
- MCHC (3 h): 33.2%
- MCV (3 h): 65.9 fL
- Mono (3 h): 4%
- Neu (3 h): 14.2%
- PT (3 h): 12.7 s
- Plat (3 h): 114.8 x10_4/uL
- RBC (3 h): 613.6 x10_4/ul
- Ret (3 h): 9.3%
- WBC (3 h): 104.2 x10_2/uL
- KIDNEY_L (3 h): 0.9 g
- KIDNEY_R (3 h): 0.9 g
- KIDNEY_TOTAL (3 h): 1.7 g
- LIVER (3 h): 8.1 g
- A/G (3 h): 2.3
- ALP (3 h): 989.4 IU/L
- ALT (3 h): 39.4 IU/L
- AST (3 h): 68 IU/L
- BUN (3 h): 12 mg/dL
- CRE (3 h): 0.5 mg/dL
- Ca (3 h): 10.7 mg/dL
- Cl (3 h): 103.2 meq/L
- DBIL (3 h): 0.032 mg/dL
- GLC (3 h): 191.4 mg/dL
- IP (3 h): 10.4 mg/dL
- K (3 h): 4.7 meq/L
- LDH (3 h): 74.4 IU/L
- Na (3 h): 138 meq/L
- PL (3 h): 141 mg/dL
- RALB (3 h): 3.8 g/dL
- TBIL (3 h): 0.3 mg/dL
- TC (3 h): 76.4 mg/dL
- TG (3 h): 49.8 mg/dL
- TP (3 h): 5.5 g/dL
- gamma-GTP (3 h): 1 IU/L
- TERMINAL_BW (6 h): 180.4 g
- APTT (6 h): 16.5 s
- Bas (6 h): 0%
- Eos (6 h): 0.8%
- Fbg (6 h): 210.2 mg/dL
- Hb (6 h): 13.5 g/dL
- Ht (6 h): 40.4%
- Lym (6 h): 79.8%
- MCH (6 h): 21.7 pg
- MCHC (6 h): 33.3%
- MCV (6 h): 65 fL
- Mono (6 h): 5.8%
- Neu (6 h): 13.8%
- PT (6 h): 12.8 s
- Plat (6 h): 104.8 x10_4/uL
- RBC (6 h): 620.8 x10_4/ul
- Ret (6 h): 9.7%
- WBC (6 h): 103 x10_2/uL
- KIDNEY_L (6 h): 0.8 g
- KIDNEY_R (6 h): 0.9 g
- KIDNEY_TOTAL (6 h): 1.7 g
- LIVER (6 h): 7.7 g
- A/G (6 h): 2.1
- ALP (6 h): 1018 IU/L
- ALT (6 h): 37.2 IU/L
- AST (6 h): 70 IU/L
- BUN (6 h): 11.4 mg/dL
- CRE (6 h): 0.5 mg/dL
- Ca (6 h): 10.4 mg/dL
- Cl (6 h): 106 meq/L
- DBIL (6 h): 0.004 mg/dL
- GLC (6 h): 183 mg/dL
- IP (6 h): 10.2 mg/dL
- K (6 h): 5 meq/L
- LDH (6 h): 98.6 IU/L
- Na (6 h): 138.4 meq/L
- PL (6 h): 155.6 mg/dL
- RALB (6 h): 3.7 g/dL
- TBIL (6 h): 0.3 mg/dL
- TC (6 h): 89 mg/dL
- TG (6 h): 62.4 mg/dL
- TP (6 h): 5.6 g/dL
- gamma-GTP (6 h): 1.4 IU/L
- TERMINAL_BW (9 h): 175.7 g
- APTT (9 h): 16.7 s
- Bas (9 h): 0%
- Eos (9 h): 0.6%
- Fbg (9 h): 186.4 mg/dL
- Hb (9 h): 13.3 g/dL
- Ht (9 h): 40.2%
- Lym (9 h): 77.6%
- MCH (9 h): 22.1 pg
- MCHC (9 h): 33.2%
- MCV (9 h): 66.6 fL
- Mono (9 h): 6.2%
- Neu (9 h): 15.6%
- PT (9 h): 13 s
- Plat (9 h): 102.3 x10_4/uL
- RBC (9 h): 606 x10_4/ul
- Ret (9 h): 9.6%
- WBC (9 h): 95.4 x10_2/uL
- KIDNEY_L (9 h): 0.8 g
- KIDNEY_R (9 h): 0.8 g
- KIDNEY_TOTAL (9 h): 1.7 g
- LIVER (9 h): 7.2 g
- A/G (9 h): 2.1
- ALP (9 h): 1020.8 IU/L
- ALT (9 h): 38.6 IU/L
- AST (9 h): 74.2 IU/L
- BUN (9 h): 11.4 mg/dL
- CRE (9 h): 0.5 mg/dL
- Ca (9 h): 11.1 mg/dL
- Cl (9 h): 106 meq/L
- DBIL (9 h): 0.052 mg/dL
- GLC (9 h): 189.6 mg/dL
- IP (9 h): 10.7 mg/dL
- K (9 h): 5.1 meq/L
- LDH (9 h): 104.6 IU/L
- Na (9 h): 139 meq/L
- PL (9 h): 141.4 mg/dL
- RALB (9 h): 3.7 g/dL
- TBIL (9 h): 0.3 mg/dL
- TC (9 h): 79.4 mg/dL
- TG (9 h): 63 mg/dL
- TP (9 h): 5.5 g/dL
- gamma-GTP (9 h): 1 IU/L
- TERMINAL_BW (24 h): 189.1 g
- APTT (24 h): 15.5 s
- Bas (24 h): 0%
- Eos (24 h): 1.6%
- Fbg (24 h): 192 mg/dL
- Hb (24 h): 13.4 g/dL
- Ht (24 h): 40.2%
- Lym (24 h): 76.4%
- MCH (24 h): 22 pg
- MCHC (24 h): 33.4%
- MCV (24 h): 66 fL
- Mono (24 h): 11.4%
- Neu (24 h): 11.2%
- PT (24 h): 12.4 s
- Plat (24 h): 110.8 x10_4/uL
- RBC (24 h): 609 x10_4/ul
- Ret (24 h): 8.4%
- WBC (24 h): 100 x10_2/uL
- KIDNEY_L (24 h): 0.9 g
- KIDNEY_R (24 h): 0.9 g
- KIDNEY_TOTAL (24 h): 1.8 g
- LIVER (24 h): 9.4 g
- A/G (24 h): 2.3
- ALP (24 h): 978.2 IU/L
- ALT (24 h): 48 IU/L
- AST (24 h): 74.6 IU/L
- BUN (24 h): 15 mg/dL
- CRE (24 h): 0.6 mg/dL
- Ca (24 h): 10.9 mg/dL
- Cl (24 h): 105.8 meq/L
- DBIL (24 h): 0.012 mg/dL
- GLC (24 h): 186.8 mg/dL
- IP (24 h): 8 mg/dL
- K (24 h): 5.1 meq/L
- LDH (24 h): 113 IU/L
- Na (24 h): 138.2 meq/L
- PL (24 h): 140.2 mg/dL
- RALB (24 h): 3.8 g/dL
- TBIL (24 h): 0.3 mg/dL
- TC (24 h): 77 mg/dL
- TG (24 h): 66.6 mg/dL
- TP (24 h): 5.5 g/dL
- gamma-GTP (24 h): 1.2 IU/L
